Measurements from patent publication US20250295620A1, “PHARMACEUTICAL COMPOSITION FOR TREATMENT OF HEART FAILURE WITH DIASTOLIC DYSFUNCTION” (NATIONAL UNIVERSITY CORPORATION TOKAI NATIONAL HIGHER …, priority 2022, published 2025).

Columns and labels:
HFpEF patients = settings: clinical studies, Anker S et al., N Engl J Med 2021; cited from earlier work
HFpEF model mice [1] = assay: Pressure-volume loop analysis with conductance catheter in HFpEF model mice, Example 2; type: in vivo; settings: Example 2, FIG. 8; tamibarotene 3 mg/kg, peretinoin 10 mg/kg, oral gavage once a day, five weeks
Method: (§1) HFpEF model mice are generated by the method reported by Schiattarella et al. (Nature. 568 (7752): 351-356. 2019). Specifically, male mice at an age of 8 to 10 weeks are given High Fat Diet (Rodent Diet with 60% kcal % fat, D12492, Research Diets Inc.) and drinking water containing a dissolved nitric oxide synthase inhibitor (No-nitro-L-arginine methyl ester hydrochloride (L-NAME), N5751, Sigma) (at a concentration of 0.5 g/L), and kept for five weeks. Various measurements are performed to confirm the establishment of an HFpEF model.
The following drugs are administered to mouse groups while mice are continued to be given the high-fat diet and the drinking water containing the dissolved nitric oxide synthase inhibitor. AM80 (Cat. No. 3507, TOCRIS) is orally administered to tamibarotene administration group via oral gavage at a single dose of 3 mg/kg once a day. Peretinoin (Cat. No. HY-100008, MedChemExpress) is orally administered to peretinoin administration group via oral gavage at a single dose of 10 mg/kg once a day. DMSO as a vehicle is orally administered to control group via oral gavage once a day. Administration is continued for five weeks, and various measurements are performed five weeks after the initial drug administration. […]

HFpEF model mice [2] = assay: Diastolic function of HFpEF model mice, overall conclusion from Examples 1 and 2; type: in vivo; settings: summary of Examples 1 and 2
Method: as §1
The following drugs are administered to mouse groups while mice are continued to be given the high-fat diet and the drinking water containing the dissolved nitric oxide synthase inhibitor. […]
Transthoracic echocardiography is performed on mice under inhalational anesthesia with isoflurane. Transmitral flow velocity pattern (TMF) is measured by pulsed Doppler echocardiography using vevo 3100 (FUJIFILM VisualSonics) equipped with a 30 MHz probe for small animals (MX-400) to determine the early diastolic inflow velocity pattern (E-wave). Early diastolic mitral annular velocity (e′) is measured by tissue Doppler echocardiography. […] LV end-systolic diameter and LV end-diastolic diameter are measured by M-mode echocardiography to calculated an LV ejection fraction (EF %). […]

HFpEF model mice [3] = assay: Masson's trichrome staining of heart tissue of HFpEF model mice, Example 2; type: in vivo; settings: Example 2, FIG. 9; tamibarotene 3 mg/kg, peretinoin 10 mg/kg, oral gavage once a day, five weeks; 400-fold
Method: as §1
The following drugs are administered to mouse groups while mice are continued to be given the high-fat diet and the drinking water containing the dissolved nitric oxide synthase inhibitor. AM80 (Cat. No. 3507, TOCRIS) is orally administered to tamibarotene administration group via oral gavage at a single dose of 3 mg/kg once a day. Peretinoin (Cat. No. HY-100008, MedChemExpress) is orally administered to peretinoin administration group via oral gavage at a single dose of 10 mg/kg once a day. DMSO as a vehicle is orally administered to control group via oral gavage once a day. […]
Tissue specimens are prepared from the harvested heart, and stained with Masson's trichrome staining. The tissue fibrosis is photographed, and the images are analyzed using Image J for assessment.

HFpEF model mice [4] = assay: Transthoracic echocardiography in HFpEF model mice, Example 1; type: in vivo; settings: tamibarotene 3 mg/kg, peretinoin 0.3 mg/body, oral gavage once a day, five weeks; for left ventricular ejection fraction before and after drug administration: Example 1, FIG. 2; for E/e′ ratio after completion of drug administration compared with before start: Example 1, FIG. 3
Method: as §1
(§2) The following drugs are administered to mouse groups while mice are continued to be given the high-fat diet and the drinking water containing the dissolved nitric oxide synthase inhibitor. AM80 (Cat. No. 3507, TOCRIS) is orally administered to tamibarotene administration group via oral gavage at a single dose of 3 mg/kg once a day. Peretinoin (Cat. No. HY-100008, MedChemExpress) is orally administered to peretinoin administration group via oral gavage at a single dose of 0.3 mg/body once a day. DMSO as a vehicle is orally administered to control group via oral gavage once a day. Administration is continued for five weeks, and various measurements are performed five weeks after the initial drug administration.
(§3) Transthoracic echocardiography is performed on mice under inhalational anesthesia with isoflurane. Transmitral flow velocity pattern (TMF) is measured by pulsed Doppler echocardiography using vevo 3100 (FUJIFILM VisualSonics) equipped with a 30 MHz probe for small animals (MX-400) to determine the early diastolic inflow velocity pattern (E-wave). Early diastolic mitral annular velocity (e′) is measured by tissue Doppler echocardiography. The transmitral E velocity is divided by the e′ velocity to calculate an E/e′ ratio. LV end-systolic diameter and LV end-diastolic diameter are measured by M-mode echocardiography to calculated an LV ejection fraction (EF %).

HFpEF model mice [5] = assay: Transthoracic echocardiography in HFpEF model mice, Example 2; type: in vivo; settings: tamibarotene 3 mg/kg, peretinoin 10 mg/kg, oral gavage once a day, five weeks; for left ventricular ejection fraction before and after drug administration: Example 2, FIG. 6; for E/e′ ratio after completion of drug administration compared with before start: Example 2, FIG. 7
Method: as §1
(§4) The following drugs are administered to mouse groups while mice are continued to be given the high-fat diet and the drinking water containing the dissolved nitric oxide synthase inhibitor. AM80 (Cat. No. 3507, TOCRIS) is orally administered to tamibarotene administration group via oral gavage at a single dose of 3 mg/kg once a day. Peretinoin (Cat. No. HY-100008, MedChemExpress) is orally administered to peretinoin administration group via oral gavage at a single dose of 10 mg/kg once a day. DMSO as a vehicle is orally administered to control group via oral gavage once a day. Administration is continued for five weeks, and various measurements are performed five weeks after the initial drug administration.
as §3

HFpEF model mice [6] = assay: Pressure-volume loop analysis with conductance catheter in HFpEF model mice, Example 1; type: in vivo; settings: Example 1, FIG. 4; tamibarotene 3 mg/kg, peretinoin 0.3 mg/body, oral gavage once a day, five weeks
Method: as §1
as §2, with “administration. […]” for “administration.”

HFpEF model mice [7] = assay: Heart weight/tibia length measurement in HFpEF model mice, Example 2; type: in vivo; settings: Example 2, FIG. 5; tamibarotene 3 mg/kg, peretinoin 10 mg/kg, oral gavage once a day, five weeks; compared among groups incl. DMSO control
Method: as §1, §4
Mice are euthanized after the catheterization, and the heart is harvested for weight measurement. […]

Row | SMILES | efficacy for HFpEF patients (HFpEF patients) | stiffness constant β compared with control group (HFpEF model mice [1]) | effect on the diastolic function of the HFpEF model mice (HFpEF model mice [2]) | tissue fibrosis (fibrosis area, high-power field) compared with control group (HFpEF model mice [3]) | left ventricular ejection fraction before and after drug administration (HFpEF model mice [4]) | E/e′ ratio after completion of drug administration compared with before start (HFpEF model mice [4]) | left ventricular ejection fraction before and after drug administration (HFpEF model mice [5]) | E/e′ ratio after completion of drug administration compared with before start (HFpEF model mice [5]) | stiffness constant β compared with control group (HFpEF model mice [6]) | heart weight/tibia length ratio after completion of drug administration (HFpEF model mice [7])
1 | OC[C@H]1O[C@@H](c2ccc(Cl)c(Cc3ccc(O[C@H]4CCOC4)cc3)c2)[C@H](O)[C@@H](O)[C@@H]1O [Empagliflozin] | effective |  |  |  |  |  |  |  |  | 
2 | CC(C)=CCC/C(C)=C/CC/C(C)=C/C=C/C(C)=C/C(=O)O [peretinoin] |  | significantly reduced | improving effect | significantly reduced | no difference | significantly reduced | no difference | significantly reduced | reduced | no significant difference
3 | CC1(C)CCC(C)(C)c2cc(NC(=O)c3ccc(C(=O)O)cc3)ccc21 [tamibarotene] |  | significantly reduced | improving effect | significantly reduced | no difference | significantly reduced | no difference | significantly reduced | reduced | no significant difference
